Measured values published in patent publication US10344060B2 (priority 2013, dated 2019).

target: hNav1.7 (Homo sapiens, UniProt Q15858); test: cell-based; format: cell-based; conditions: ratio of PX tonic IC50 values; Table 11
Sequence (Q15858 whole entry): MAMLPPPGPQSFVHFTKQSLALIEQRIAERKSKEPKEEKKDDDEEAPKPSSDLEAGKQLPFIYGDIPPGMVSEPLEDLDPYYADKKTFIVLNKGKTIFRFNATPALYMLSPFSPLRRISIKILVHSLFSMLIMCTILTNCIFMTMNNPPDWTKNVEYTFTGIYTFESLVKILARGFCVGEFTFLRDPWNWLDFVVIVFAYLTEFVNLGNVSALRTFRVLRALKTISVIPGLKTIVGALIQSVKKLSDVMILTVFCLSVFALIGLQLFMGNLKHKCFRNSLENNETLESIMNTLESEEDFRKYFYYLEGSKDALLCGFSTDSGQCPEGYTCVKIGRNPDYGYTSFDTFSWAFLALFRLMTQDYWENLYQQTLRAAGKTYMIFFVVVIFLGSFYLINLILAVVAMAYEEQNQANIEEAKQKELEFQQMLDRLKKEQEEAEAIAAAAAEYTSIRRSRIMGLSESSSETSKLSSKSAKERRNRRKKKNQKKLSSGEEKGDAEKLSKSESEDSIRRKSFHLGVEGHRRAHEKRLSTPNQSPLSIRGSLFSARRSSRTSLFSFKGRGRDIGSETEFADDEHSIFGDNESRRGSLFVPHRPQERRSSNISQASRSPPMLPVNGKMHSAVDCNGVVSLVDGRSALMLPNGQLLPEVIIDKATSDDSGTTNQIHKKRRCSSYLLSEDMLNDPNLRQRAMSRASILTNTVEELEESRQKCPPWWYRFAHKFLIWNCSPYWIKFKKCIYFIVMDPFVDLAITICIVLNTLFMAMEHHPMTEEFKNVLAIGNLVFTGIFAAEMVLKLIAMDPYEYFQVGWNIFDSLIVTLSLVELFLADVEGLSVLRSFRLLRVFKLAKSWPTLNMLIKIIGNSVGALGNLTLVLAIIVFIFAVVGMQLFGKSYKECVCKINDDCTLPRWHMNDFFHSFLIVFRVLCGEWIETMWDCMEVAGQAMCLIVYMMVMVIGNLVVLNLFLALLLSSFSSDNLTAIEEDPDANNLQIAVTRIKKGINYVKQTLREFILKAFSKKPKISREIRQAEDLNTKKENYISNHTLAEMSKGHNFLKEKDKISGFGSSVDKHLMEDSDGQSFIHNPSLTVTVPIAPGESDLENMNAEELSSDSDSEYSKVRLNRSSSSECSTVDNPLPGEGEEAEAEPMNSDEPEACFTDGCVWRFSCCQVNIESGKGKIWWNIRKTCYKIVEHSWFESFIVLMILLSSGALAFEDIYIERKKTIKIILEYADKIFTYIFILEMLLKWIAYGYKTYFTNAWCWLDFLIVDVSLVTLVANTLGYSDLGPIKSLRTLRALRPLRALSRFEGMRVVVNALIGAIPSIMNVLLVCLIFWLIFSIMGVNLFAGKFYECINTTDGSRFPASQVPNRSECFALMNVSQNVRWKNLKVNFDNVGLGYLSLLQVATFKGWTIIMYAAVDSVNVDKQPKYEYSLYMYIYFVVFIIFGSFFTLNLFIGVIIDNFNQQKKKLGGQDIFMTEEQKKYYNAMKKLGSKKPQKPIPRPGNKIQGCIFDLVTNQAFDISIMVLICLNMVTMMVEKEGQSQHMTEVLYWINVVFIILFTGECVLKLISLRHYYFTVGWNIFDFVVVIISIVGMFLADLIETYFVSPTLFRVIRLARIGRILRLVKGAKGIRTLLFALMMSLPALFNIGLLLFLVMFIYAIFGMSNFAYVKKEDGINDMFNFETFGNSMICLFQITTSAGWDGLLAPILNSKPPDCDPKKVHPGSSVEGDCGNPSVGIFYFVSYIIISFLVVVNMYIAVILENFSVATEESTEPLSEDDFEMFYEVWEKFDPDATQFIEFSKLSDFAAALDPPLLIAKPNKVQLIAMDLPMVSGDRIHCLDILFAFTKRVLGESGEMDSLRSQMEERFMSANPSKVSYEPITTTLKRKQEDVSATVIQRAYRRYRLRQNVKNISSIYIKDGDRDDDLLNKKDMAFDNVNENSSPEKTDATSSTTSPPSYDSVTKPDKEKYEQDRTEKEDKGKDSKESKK

SMILES | Nav1.4/Nav1.7 | Nav1.5/Nav1.7
CC[C@H](C)[C@H](NC(=O)[C@H](Cc1ccc(O)cc1)NC(=O)[C@H](CCCCN)NC(=O)[C@H](CCCNC(=N)N)NC(=O)[C@@H]1CSSC[C@@H]2NC(=O)[C@H](C)NC(=O)[C@H](CCCNC(=N)N)NC(=O)[C@H](CCCCN)NC(=O)[C@H](CO)NC(=O)[C@H](CC(=O)O)NC(=O)[C@@H]3CSSC[C@H](NC(=O)[C@H](CCC(=O)O)NC(=O)[C@H](CC(C)C)NC(=O)CNC(=O)[C@H](CCC(=O)O)NC(=O)[C@H](CSSC[C@H](NC(=O)[C@@H](N)CCC(=O)O)C(=O)N[C@@H](CCC(N)=O)C(=O)N[C@@H](CCCCN)C(=O)N[C@@H](Cc4c[nH]c5ccccc45)C(=O)N[C@@H](CCSC)C(=O)N[C@@H](Cc4c[nH]c5ccccc45)C(=O)N[C@@H]([C@@H](C)O)C(=O)N3)NC2=O)C(=O)N[C@@H](CCCCN)C(=O)N[C@@H](CC(C)C)C(=O)N[C@@H](Cc2c[nH]c3ccccc23)C(=O)N1)C(N)=O [compound 277] | 171 | >1818
CCCC[C@@H]1NC(=O)[C@H](Cc2c[nH]c3ccccc23)NC(=O)[C@H](CCCCN)NC(=O)[C@H](CCC(N)=O)NC(=O)[C@@H](NC(=O)[C@H](Cc2ccc(O)cc2)NC(=O)[C@@H](N)CC(C)C)CSSC[C@@H]2NC(=O)[C@@H]3CSSC[C@@H](C(=O)N[C@@H](CCCNC(=N)N)C(=O)N[C@@H](CCCCN)C(=O)N[C@H](C(=O)N[C@H](C(N)=O)[C@@H](C)CC)[C@@H](C)CC)NC(=O)[C@H](Cc4c[nH]c5ccccc45)NC(=O)[C@H](CC(C)C)NC(=O)[C@H](CCCCN)NC(=O)[C@H](CSSC[C@H](NC(=O)[C@H]([C@@H](C)O)NC(=O)[C@H](Cc4c[nH]c5ccccc45)NC1=O)C(=O)N[C@@H](CC(=O)O)C(=O)N[C@@H](CO)C(=O)N[C@@H](CCCCN)C(=O)N[C@@H](CCCNC(=N)N)C(=O)N[C@@H](C)C(=O)N3)NC(=O)[C@H](CCCNC(=N)N)NC(=O)[C@H](CC(C)C)NC(=O)CNC(=O)[C@H](CCC(=O)O)NC2=O [compound 361] | 0 | 0
CCCC[C@@H]1NC(=O)[C@H](Cc2c[nH]c3ccccc23)NC(=O)[C@H](CCCCN)NC(=O)[C@H](CCC(N)=O)NC(=O)[C@@H](NC(=O)[C@H](Cc2ccc(O)cc2)NC(=O)[C@@H](N)CCC)CSSC[C@@H]2NC(=O)[C@@H]3CSSC[C@@H](C(=O)N[C@@H](CCCNC(=N)N)C(=O)N[C@@H](CCCCN)C(=O)N[C@H](C(=O)N[C@H](C(N)=O)[C@@H](C)CC)[C@@H](C)CC)NC(=O)[C@H](Cc4c[nH]c5ccccc45)NC(=O)[C@H](CC(C)C)NC(=O)[C@H](CCCCN)NC(=O)[C@H](CSSC[C@H](NC(=O)[C@H]([C@@H](C)O)NC(=O)[C@H](Cc4c[nH]c5ccccc45)NC1=O)C(=O)N[C@@H](CC(=O)O)C(=O)N[C@@H](CO)C(=O)N[C@@H](CCCCN)C(=O)N[C@@H](CCCNC(=N)N)C(=O)N[C@@H](C)C(=O)N3)NC(=O)[C@H](CCCNC(=N)N)NC(=O)[C@H](CC(C)C)NC(=O)CNC(=O)[C@H](CCC(=O)O)NC2=O [compound 369] | 552 | 23418
CCCC[C@@H]1NC(=O)[C@H](Cc2c[nH]c3ccccc23)NC(=O)[C@H](CCCCN)NC(=O)[C@H](CCC(N)=O)NC(=O)[C@@H](NC(=O)[C@H](Cc2ccc(O)cc2)NC(=O)[C@@H](N)CCCC)CSSC[C@@H]2NC(=O)[C@@H]3CSSC[C@@H](C(=O)N[C@@H](CCCNC(=N)N)C(=O)N[C@@H](CCCCN)C(=O)N[C@H](C(=O)N[C@H](C(N)=O)[C@@H](C)CC)[C@@H](C)CC)NC(=O)[C@H](Cc4c[nH]c5ccccc45)NC(=O)[C@H](CC(C)C)NC(=O)[C@H](CCCCN)NC(=O)[C@H](CSSC[C@H](NC(=O)[C@H]([C@@H](C)O)NC(=O)[C@H](Cc4c[nH]c5ccccc45)NC1=O)C(=O)N[C@@H](CC(=O)O)C(=O)N[C@@H](CO)C(=O)N[C@@H](CCCCN)C(=O)N[C@@H](CCCNC(=N)N)C(=O)N[C@@H](C)C(=O)N3)NC(=O)[C@H](CCCNC(=N)N)NC(=O)[C@H](CC(C)C)NC(=O)CNC(=O)[C@H](CCC(=O)O)NC2=O [compound 370] | 21 | 3729
CCCC[C@@H]1NC(=O)[C@H](Cc2c[nH]c3ccccc23)NC(=O)[C@H](CCCCN)NC(=O)[C@H](CCC(N)=O)NC(=O)[C@@H](NC(=O)[C@H](Cc2ccc(O)cc2)NC(=O)[C@@H](C)N)CSSC[C@@H]2NC(=O)[C@@H]3CSSC[C@@H](C(=O)N[C@@H](CCCNC(=N)N)C(=O)N[C@@H](CCCCN)C(=O)N[C@H](C(=O)N[C@H](C(N)=O)[C@@H](C)CC)[C@@H](C)CC)NC(=O)[C@H](Cc4c[nH]c5ccccc45)NC(=O)[C@H](CC(C)C)NC(=O)[C@H](CCCCN)NC(=O)[C@H](CSSC[C@H](NC(=O)[C@H]([C@@H](C)O)NC(=O)[C@H](Cc4c[nH]c5ccccc45)NC1=O)C(=O)N[C@@H](CC(=O)O)C(=O)N[C@@H](CO)C(=O)N[C@@H](CCCCN)C(=O)N[C@@H](CCCNC(=N)N)C(=O)N[C@@H](C)C(=O)N3)NC(=O)[C@H](CCCNC(=N)N)NC(=O)[C@H](CC(C)C)NC(=O)CNC(=O)[C@H](CCC(=O)O)NC2=O [compound 372] | 5 | 764
CCCC[C@@H]1NC(=O)[C@H](Cc2c[nH]c3ccccc23)NC(=O)[C@H](CCCCN)NC(=O)[C@H](CCC(N)=O)NC(=O)[C@@H](NC(=O)[C@H](Cc2ccc(O)cc2)NC(=O)[C@H](N)CC(C)C)CSSC[C@@H]2NC(=O)[C@@H]3CSSC[C@@H](C(=O)N[C@@H](CCCNC(=N)N)C(=O)N[C@@H](CCCCN)C(=O)N[C@H](C(=O)N[C@H](C(N)=O)[C@@H](C)CC)[C@@H](C)CC)NC(=O)[C@H](Cc4c[nH]c5ccccc45)NC(=O)[C@H](CC(C)C)NC(=O)[C@H](CCCCN)NC(=O)[C@H](CSSC[C@H](NC(=O)[C@H]([C@@H](C)O)NC(=O)[C@H](Cc4c[nH]c5ccccc45)NC1=O)C(=O)N[C@@H](CC(=O)O)C(=O)N[C@@H](CO)C(=O)N[C@@H](CCCCN)C(=O)N[C@@H](CCCNC(=N)N)C(=O)N[C@@H](C)C(=O)N3)NC(=O)[C@H](CCCNC(=N)N)NC(=O)[C@H](CC(C)C)NC(=O)CNC(=O)[C@H](CCC(=O)O)NC2=O [compound 373] | 190 | 2704
CCCC[C@@H]1NC(=O)[C@H](Cc2c[nH]c3ccccc23)NC(=O)[C@H](CCCCN)NC(=O)[C@H](CCC(N)=O)NC(=O)[C@@H](NC(=O)[C@H](Cc2ccc(O)cc2)NC(=O)[C@H](N)Cc2ccccc2)CSSC[C@@H]2NC(=O)[C@@H]3CSSC[C@@H](C(=O)N[C@@H](CCCNC(=N)N)C(=O)N[C@@H](CCCCN)C(=O)N[C@H](C(=O)N[C@H](C(N)=O)[C@@H](C)CC)[C@@H](C)CC)NC(=O)[C@H](Cc4c[nH]c5ccccc45)NC(=O)[C@H](CC(C)C)NC(=O)[C@H](CCCCN)NC(=O)[C@H](CSSC[C@H](NC(=O)[C@H]([C@@H](C)O)NC(=O)[C@H](Cc4c[nH]c5ccccc45)NC1=O)C(=O)N[C@@H](CC(=O)O)C(=O)N[C@@H](CO)C(=O)N[C@@H](CCCCN)C(=O)N[C@@H](CCCNC(=N)N)C(=O)N[C@@H](C)C(=O)N3)NC(=O)[C@H](CCCNC(=N)N)NC(=O)[C@H](CC(C)C)NC(=O)CNC(=O)[C@H](CCC(=O)O)NC2=O [compound 374] | 19 | 1757
CCCC[C@@H]1NC(=O)[C@H](Cc2c[nH]c3ccccc23)NC(=O)[C@H](CCCCN)NC(=O)[C@H](CCC(N)=O)NC(=O)[C@@H](NC(=O)[C@H](Cc2ccc(O)cc2)NC(=O)CCN)CSSC[C@@H]2NC(=O)[C@@H]3CSSC[C@@H](C(=O)N[C@@H](CCCNC(=N)N)C(=O)N[C@@H](CCCCN)C(=O)N[C@H](C(=O)N[C@H](C(N)=O)[C@@H](C)CC)[C@@H](C)CC)NC(=O)[C@H](Cc4c[nH]c5ccccc45)NC(=O)[C@H](CC(C)C)NC(=O)[C@H](CCCCN)NC(=O)[C@H](CSSC[C@H](NC(=O)[C@H]([C@@H](C)O)NC(=O)[C@H](Cc4c[nH]c5ccccc45)NC1=O)C(=O)N[C@@H](CC(=O)O)C(=O)N[C@@H](CO)C(=O)N[C@@H](CCCCN)C(=O)N[C@@H](CCCNC(=N)N)C(=O)N[C@@H](C)C(=O)N3)NC(=O)[C@H](CCCNC(=N)N)NC(=O)[C@H](CC(C)C)NC(=O)CNC(=O)[C@H](CCC(=O)O)NC2=O [compound 376] | 3 | 731
CCCC[C@@H]1NC(=O)[C@H](Cc2c[nH]c3ccccc23)NC(=O)[C@H](CCCCN)NC(=O)[C@H](CCC(N)=O)NC(=O)[C@@H](NC(=O)[C@H](Cc2ccc(O)cc2)NC(=O)[C@@H](N)CCC(C)C)CSSC[C@@H]2NC(=O)[C@@H]3CSSC[C@@H](C(=O)N[C@@H](CCCNC(=N)N)C(=O)N[C@@H](CCCCN)C(=O)N[C@H](C(=O)N[C@H](C(N)=O)[C@@H](C)CC)[C@@H](C)CC)NC(=O)[C@H](Cc4c[nH]c5ccccc45)NC(=O)[C@H](CC(C)C)NC(=O)[C@H](CCCCN)NC(=O)[C@H](CSSC[C@H](NC(=O)[C@H]([C@@H](C)O)NC(=O)[C@H](Cc4c[nH]c5ccccc45)NC1=O)C(=O)N[C@@H](CC(=O)O)C(=O)N[C@@H](CO)C(=O)N[C@@H](CCCCN)C(=O)N[C@@H](CCCNC(=N)N)C(=O)N[C@@H](C)C(=O)N3)NC(=O)[C@H](CCCNC(=N)N)NC(=O)[C@H](CC(C)C)NC(=O)CNC(=O)[C@H](CCC(=O)O)NC2=O [compound 377] | 13 | 615
CCCC[C@@H]1NC(=O)[C@H](Cc2c[nH]c3ccccc23)NC(=O)[C@H](CCCCN)NC(=O)[C@H](CCC(N)=O)NC(=O)[C@@H](NC(=O)[C@H](Cc2ccc(O)cc2)NC(=O)[C@@H](N)CCc2ccccc2)CSSC[C@@H]2NC(=O)[C@@H]3CSSC[C@@H](C(=O)N[C@@H](CCCNC(=N)N)C(=O)N[C@@H](CCCCN)C(=O)N[C@H](C(=O)N[C@H](C(N)=O)[C@@H](C)CC)[C@@H](C)CC)NC(=O)[C@H](Cc4c[nH]c5ccccc45)NC(=O)[C@H](CC(C)C)NC(=O)[C@H](CCCCN)NC(=O)[C@H](CSSC[C@H](NC(=O)[C@H]([C@@H](C)O)NC(=O)[C@H](Cc4c[nH]c5ccccc45)NC1=O)C(=O)N[C@@H](CC(=O)O)C(=O)N[C@@H](CO)C(=O)N[C@@H](CCCCN)C(=O)N[C@@H](CCCNC(=N)N)C(=O)N[C@@H](C)C(=O)N3)NC(=O)[C@H](CCCNC(=N)N)NC(=O)[C@H](CC(C)C)NC(=O)CNC(=O)[C@H](CCC(=O)O)NC2=O [compound 379] | 10 | 916
